Laboratory results reported in US11807640B1 (priority 2023, dated 2023).
≈ marks a conversion by molar mass, not a printed value.

System: Mycobacterium tuberculosis (MTB) H37Rv
Assay: Resazurin Microplate Assay (REMA), anti-tubercular screening, H37Rv
Type: cell-based
Conditions: 192 h, Middlebrook 7H9 broth, 37° C., 8 days incubation then resazurin overnight, read-out: MIC (μg/mL) H37Rv

Compound `COC(=O)c1c(C(=O)OC)c2cc(C(=O)OC(C)C)ccn2c1C(=O)c1ccc(Br)cc1` [KNV-7, 7-Isopropyl 1,2-dimethyl 3-(4-bromobenzoyl)indolizine-1,2,7-tricarboxylate] has an MIC of 1 µg/mL (≈ 1.99 µM).
`CCOC(=O)c1cc(C(=O)c2ccc(F)cc2)n2ccc(C(=O)OC(C)C)cc12` [KNV-4, 1-Ethyl 7-isopropyl 3-(4-fluorobenzoyl)indolizine-1,7-dicarboxylate] was tested, and the MIC was 1 µg/mL (≈ 2.52 µM).
